In patent US12403121B2, “Anticancer rocaglamide derivatives” (priority 2018, dated 2025):

How the values were obtained:
[1] = system: panel of MPNST, schwannoma, and meningioma cell lines; test: Side-by-side growth inhibition comparison with silvestrol in a cell line panel; format: cell-based; settings: panel of MPNST, schwannoma, meningioma cell lines
Experimental: (§1) Actively-growing cells were seeded in 96-well plates (Sarstedt) at 2,000 cells/well for Ben-Men-1 and RD cells, 30,000 cells/well for 697 and 697-R cells, and 4,000 cells/well for all other cell lines. The following day, cells were treated with various concentrations of each compound or and 0.05% of DMSO as the control for six days for MG-63 cells or three days for all remaining cell lines. Cell proliferation was assessed using resazurin assays and the IC50 value calculated. Cell cycle analysis was performed accordingly. Burns et al., Cancer Res., 73:792-803 (2013).
To search for compounds with better drug-like properties, the inventors conducted a side-by-side comparison of ten rocaglates lacking the dioxanyl ring with silvestrol for growth-inhibitory activity in a panel of MPNST, schwannoma, and meningioma cell lines, which they had previously shown to be sensitive to the antiproliferative action of silvestrol. […] The average IC50 value of each rocaglate was determined by 3-day resazurin proliferation assays. […] Further structure and activity comparison discerned some positions on the cyclopenta[b]benzofuran scaffold that affected the antiproliferative activity of rocaglates.

[2] = system: A673, TC32, 143B, MG-63, Saos2, OS17 and RD sarcoma cell lines; test: Cell proliferation in Ewing sarcoma, osteosarcoma and rhabdomyosarcoma cell lines; format: cell-based; settings: two Ewing sarcoma, four osteosarcoma, one rhabdomyosarcoma cell lines
Experimental: The human MPNST cell lines, ST8814, STS26T, S462, T265, and luciferase-expressing ST8814-Luc, the human NF2-deficient meningioma cell line Ben-Men-1, the NJ2 mouse schwannoma cell line Sch10545, and primary human Schwann cells were propagated as previously described. Oblinger et al., Neuro-Oncol., 18:1265-1277 (2016). The Ewing sarcoma cell line A673 and the osteosarcoma cell lines, 143B and MG-63, were grown in Dulbecco's Modified Eagle's (DME) medium (Millipore-Sigma) supplemented with 10% fetal bovine serum (FBS; Atlanta Biological). The silvestrol-sensitive 697 and silvestrol-resistant 697-R pre-B acute lymphoblastic leukemia cells (Gupta et al., AAPS J., 13:357-364 (2011)), the Ewing sarcoma cell line TC32, the osteosarcoma cell lines, Saos2 and OS17, and the rhabdomyosarcoma cell line RD were cultivated in RPMI 1640 medium (Millipore-Sigma) plus 10% FBS.
as §1
Since MPNSTs comprise only ˜2% of all sarcomas (Farid et al. Oncologist, 19:193-201 (2014)), the inventors expanded their testing of Roc and DDR to three other more prevalent sarcomas particularly in children and young adults: Ewing sarcoma, osteosarcoma, and rhabdomyosarcoma.

COc1ccc([C@@]23Oc4cc(OC)cc(OC)c4[C@]2(O)[C@H](O)[C@H](C(=O)N(C)C)[C@H]3c2ccccc2)cc1 [Roc, rocaglamide]
IC50 values relative to silvestrol [1]: slightly higher than silvestrol | activity against sarcoma cell lines [2]: highly active
